Data: US20200282009A1, “METHODS OF TREATING DISEASES ASSOCIATED WITH VASCULAR SMOOTH MUSCLE CELL PROLIFERATION” (BioLineRx Ltd., priority 2017, published 2020)

Tests used:
Assay type in all cases: cell-based, human
SK-N-BE(2)-CXCR4 cells = assay: Cell survival assay (PI staining, FACS); conditions: SK-N-BE(2)-CXCR4 compared to native cell line; 0-10 μM, 24 hours
Description: A total of 1×10^5 cells/mL were cultured in 24-well plates with […] RPMI 1640 medium supplemented with 10% FCS. 24 hours later, the medium was changed to RPMI 1640 supplemented with either 1% FCS, with BL-8040 or AMD3100 or ABT199. Then 24 hours later, the cells were harvested, washed, and stained with PI (Sigma). The number of live cells was counted and analyzed using FACS analysis.
In order to stably overexpress CXCR4, SK-N-BE(2) cells were transduced with the lentiviral bicistronic vector harboring a CXCR4 expression cassette. This was done using a three-plasmid system: pHR′-CMVCXCR4-IRES-GFP-WPRE; envelope coding plasmid VSV-G and a packaging construct CMVDR8.91 according to previously published protocol (23). For transduction of SK-N-BE(2) cells, 1 ml of viral supernatant was used, which is equivalent to an m.o.i. of ˜9.

SK-N-BE(2) cells [1] = assay: Soft agar colony assay; conditions: CXCL12 100 ng/ml, 14 days
Description: An agar base layer was prepared as follows: 45 mL RPMI plus 12% FCS was mixed with 15 mL RPMI 32 plus 12% FCS and 15 mL 2.5% agar in double-distilled water. The tumor cells were suspended in RPMI plus 10% FCS. Cell suspension was mixed in a ratio of 1:3 with the agar base solution. This mixture was then plated on top of a preformed solid agar base. CXCL12 (100 ng/mL) or BL-8040 (20 μM) or anti-CXCR4 (1 μg/ml) were added to the mixture. Fourteen days later, the number of colonies was counted in 10 different fields.

Shy-SY5Y cells = assay: Cell proliferation assay with CXCL12; conditions: CXCL12 500 ng/ml
Description: (§1) Cells were seeded at 2×10^4 cells/1 ml per well into a 24-well plate in medium supplemented with 0.1% FCS with or without various concentrations of CXCL12 (PeproTech EC). On days 2, 4 and 7, cells were harvested, stained with propidium iodide (PI, Sigma), and the number of viable cells was determined using FACS analysis.

SK-N-BE(2) cells [2] = assay: Cell proliferation assay with CXCL12
Description: as §1

[3] = tested on: BCL-2 and CCND1 in SK-N-BE(2) cells; assay: qPCR of target genes after miR transfection
Description: cDNA was synthesized from 0.5-1 μg total RNA using the Quanta Biosciences qScript™ cDNA Synthesis Kit (95047-100) for mRNA analysis, and using the qScript™ microRNA cDNA Synthesis Kit (95107-100) for miRNAs analysis. Quantiative PCR (qPCR) of miRNAs and mRNA was performed using the CFX384, C1000 touch thermal cycler (Bio-Rad) and a SYBR Green PCR Kit: Quanta Cat. #84018 and #84071, respectively. The fold expression and statistical significance were calculated using the 2-ΔΔ Ct method. All experiments were performed in triplicate.
Transfections were performed using Lipofectamine 2000 transfection reagent (Invitrogen) according to the manufacturer's protocol. Plasmids were purchased from Dharmacon. MiR-15a: miRIDIAN microRNA hsa-miR-15a-5p mimic. MiR-16-1: miRIDIAN microRNA hsa-miR-16-5p mimic. Negative control miR: miRIDIAN microRNA inhibitor negative control. AntagomiR-15a: miRIDIAN microRNA hsa-miR-15a-5p hairpin inhibitor. AntagomiR-16-1: miRIDIAN microRNA hsa-miR-16-5p hairpin inhibitor. AntagomiR negative control: miRIDIAN microRNA hairpin inhibitor negative control 1. All miRNA-mimics and antagomiRs were transfected at 50 nM or 100 nM. To determine the efficiency of transfection, at 48 hours post-transfection, the cells were analyzed for RNA.

With `CC1(C)CCC(CN2CCN(c3ccc(C(=O)NS(=O)(=O)c4ccc(NCC5CCOCC5)c([N+](=O)[O-])c4)c(Oc4cnc5[nH]ccc5c4)c3)CC2)=C(c2ccc(Cl)cc2)C1` [ABT-199, reference compound] the “resistance to the BCL-2 inhibitor (viability)” value (SK-N-BE(2)-CXCR4 cells) was “high resistance”.

In the case of “CXCL12: the ligand of CXCR4 (PeproTech EC)”, the “colony formation with CXCL12” value (SK-N-BE(2) cells [1]) is reported as “high colony formation ability”, the “proliferation with CXCL12” value (Shy-SY5Y cells) is reported as “increased proliferation” and the “proliferation with CXCL12” value (SK-N-BE(2) cells [2]) is reported as “no response”.

With “miR-16-1: miRIDIAN microRNA hsa-miR-16-5p mimic (guide TAGCAGCACGTAAATATTGGCG; mimic duplex; passenger strand missing)” the “level of both target genes (BCL-2 and CCND1) after transfection” value [3] was “reduction”.
